Results on 51 molecules are retold here after PMC8041284, “Tunable Methacrylamides for Covalent Ligand Directed Release Chemistry” (Journal of the American Chemical Society, 2021).

This test addresses BTK (Homo sapiens, UniProt Q06187). In words: biochemical.
The mark [1] stands for this setting: read-out: BTK inhibition (%), 0.75 uM BTK, […] probe 3l, 15 min preincubation.

Like-named read-outs stand apart in the source and are kept apart here.

Sequence of BTK (Q06187 402-655 limits assumed): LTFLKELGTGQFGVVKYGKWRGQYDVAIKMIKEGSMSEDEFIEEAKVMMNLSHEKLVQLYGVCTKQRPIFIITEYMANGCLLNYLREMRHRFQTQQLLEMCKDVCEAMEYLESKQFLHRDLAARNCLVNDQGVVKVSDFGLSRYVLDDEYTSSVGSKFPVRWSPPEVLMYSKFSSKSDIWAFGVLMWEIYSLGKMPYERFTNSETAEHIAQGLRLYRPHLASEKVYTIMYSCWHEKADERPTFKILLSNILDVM

What is called inhibition is the change of the read-out against control, counted positive when it falls. Turning to `COC(=O)Nc1ccc(-c2nc(N3CCOCC3)c3cnn(C4CCN(C(=O)OC)CC4)c3n2)cc1` [PCM-0095038], the inhibition at 10 µM under setting [1] came out at 18.6%.

As to `CCCS(=O)(=O)Nc1ccc(F)c(C(=O)c2c[nH]c3ncc(-c4ccc(Cl)cc4)cc23)c1F` [PCM-0095039], under setting [1], the inhibition at 10 µM is 24.8%.

Regarding `CCOc1cc(N)c(Cl)cc1C(=O)NCC1CN(Cc2ccc(F)cc2)CCO1` (stereo not drawn) [PCM-0095041], the inhibition at 10 µM under setting [1] is -14%.

In the case of `NC1(c2ccc(-c3nc4ccn5c(=O)[nH]nc5c4cc3-c3ccccc3)cc2)CCC1` [PCM-0095042], the inhibition at 10 µM under setting [1] is -2.8%.

Consider `C=CC(=O)Nc1cccc(Oc2nc(Nc3ccc(N4CCN(C)CC4)cc3OC)ncc2Cl)c1` [PCM-0095043], for which the inhibition at 10 µM under setting [1] came to 89%.

With `C[C@](O)(COc1ccc(C#N)cc1)C(=O)Nc1ccc(C#N)c(C(F)(F)F)c1` [PCM-0095045], the inhibition at 10 µM (read-out: BTK inhibition (%)) was -0.8%.

Regarding `Cc1[nH]c(/C=C2\C(=O)Nc3ccc(S(=O)(=O)N(C)c4cccc(Cl)c4)cc32)c(C)c1C(=O)N1CCN(C)CC1` [PCM-0095046], under setting [1], the inhibition at 10 µM amounted to 6.9%.

Regarding `COc1c(C)cnc(Cn2cnc3c(Cl)nc(N)nc32)c1C` [PCM-0095047], under setting [1], the inhibition at 10 µM was -10.3%.

Take `CS(=O)(=O)c1ccc(C(=O)Nc2ccc(Cl)c(-c3ccccn3)c2)c(Cl)c1` [PCM-0095048]: the inhibition at 10 µM under setting [1] came to 6.2%.

Take `Cc1cc2c(F)c(Oc3ncnn4cc(OC[C@@H](C)O)c(C)c34)ccc2[nH]1` [PCM-0095049]: under setting [1], the inhibition at 10 µM came out at 9%.

Consider `CNC(=O)c1cc(Oc2ccc(NC(=O)Nc3ccc(Cl)c(C(F)(F)F)c3)c(F)c2)ccn1` [PCM-0095050], for which, under setting [1], the inhibition at 10 µM was determined as 13.1%.

On to `O=C(/C=C/c1cccc(S(=O)(=O)Nc2ccccc2)c1)NO` [PCM-0095051], for which the inhibition at 10 µM under setting [1] came out at 9%.

`C=CC(=O)Nc1cccc(Sc2nc(Nc3ccc(N4CCN(C)CC4)cc3)ncc2Cl)c1` [PCM-0095052]: the inhibition at 10 µM under setting [1] is 95.9%.

On to `NC(=O)c1ccc(I)c([N+](=O)[O-])c1` [PCM-0095053], for which the inhibition at 10 µM under setting [1] is -1.4%.

As to `O=c1[nH]c(-c2ccc(C(F)(F)F)cc2)nc2c1CSCC2` [PCM-0095054], under setting [1], the inhibition at 10 µM is -25.5%.

As to `Nc1ncnc2c1c(-c1cccc(OCc3ccccc3)c1)cn2C1CC(CN2CCCC2)C1` (stereo not drawn) [PCM-0095055], under setting [1], the inhibition at 10 µM was found to be 13.2%.

On to `N=C(N)c1ccc2cc(OC(=O)c3ccc(N=C(N)N)cc3)ccc2c1` [PCM-0095060], for which the inhibition at 10 µM under setting [1] is -1.6%.

Turning to `O=C(NCCCNc1nc(Nc2cccc(NC(=O)N3CCCC3)c2)ncc1I)c1cccs1` [PCM-0095061], under setting [1], the inhibition at 10 µM was 60%.

As to `O=C(Nc1cccc(Nc2ncc(Br)c(NCCc3cnc[nH]3)n2)c1)N1CCCC1` [PCM-0095062], under setting [1], the inhibition at 10 µM came to 85.5%.

On to `CCOc1cc2ncc(C#N)c(Nc3ccc(F)c(Cl)c3)c2cc1NC(=O)/C=C/CN(C)C` [PCM-0095063], for which the inhibition at 10 µM under setting [1] stood at 96.6%.

Take `CN1C[C@@H]2c3ccccc3Oc3ccc(Cl)cc3[C@H]2C1` [PCM-0095064]: under setting [1], the inhibition at 10 µM is 9.3%.

As for `O=c1cc(-c2cccc3c2Sc2ccccc2S3)oc(N2CCOCC2)c1` [PCM-0095067], the inhibition at 10 µM under setting [1] is -12.4%.

Turning to `C/C(=C\C(=O)Nc1ccccc1C(=O)O)c1ccc2ccccc2c1` [PCM-0095068], the inhibition at 10 µM under setting [1] is -11%.

Take `CCc1cc(Nc2nccc(-c3c(-c4ccc(OC)c(C(=O)Nc5c(F)cccc5F)c4)nc4ccccn34)n2)c(OC)cc1N1CCC(N2CCN(S(C)(=O)=O)CC2)CC1` [PCM-0095069]: the inhibition at 10 µM under setting [1] came to 44.8%.

Turning to `OCCn1cc(-c2cnc3nnn(Cc4ccc5ncccc5c4)c3n2)cn1` [PCM-0095071], the inhibition at 10 µM under setting [1] was determined as 0%.

Regarding `O=C(/C=C/c1ccc(CN(CCO)CCc2c[nH]c3ccccc23)cc1)NO` [PCM-0095072], the inhibition at 10 µM under setting [1] was -9.3%.

For `Cn1cc(CNCC2CCN(c3ncc(C(=O)NO)cn3)CC2)c2ccccc21` [PCM-0095073], under setting [1], the inhibition at 10 µM is -11.7%.

As to `CC1COC2(CCN(c3nc(=O)c4cc(C(F)(F)F)cc([N+](=O)[O-])c4s3)CC2)O1` (stereo not drawn) [PCM-0095074], the inhibition at 10 µM under setting [1] was 4.7%.

`CNCc1ccc(-c2[nH]c3cc(F)cc4c3c2CCNC4=O)cc1` [PCM-0095075]: the inhibition at 10 µM under setting [1] was found to be 18.6%.

In the case of `Cc1nc2ccc(CN(C)c3ccc(C(=O)N[C@@H](CCC(=O)O)C(=O)O)s3)cc2c(=O)[nH]1` [PCM-0095076], the inhibition at 10 µM under setting [1] was found to be 1.6%.

With `O=C(O)c1ccc(Nc2ncc3c(n2)-c2ccc(Cl)cc2C(c2c(F)cccc2F)=NC3)cc1` [PCM-0095077], the inhibition at 10 µM under setting [1] stood at 79.3%.

Take `C#Cc1cccc(Nc2ncnc3cc(OC)c(OCCCCCCC(=O)NO)cc23)c1` [PCM-0095078]: the inhibition at 10 µM under setting [1] stood at 87.6%.

As to `CNC(=O)c1ccc2cc([C@@]3(O)CCn4cncc43)ccc2c1` [PCM-0095080], the inhibition at 10 µM under setting [1] is 3.1%.

In the case of `CCNC(=O)CCC/C=C\C[C@@H]1[C@@H](/C=C/[C@@H](O)CCc2ccccc2)[C@H](O)C[C@@H]1O` [PCM-0095085], under setting [1], the inhibition at 10 µM stood at 15.2%.

On to `C/C(=C\c1csc(C)n1)[C@@H]1C[C@@H]2O[C@@H]2CCC[C@H](C)[C@H](O)[C@@H](C)C(=O)C(C)(C)[C@@H](O)CC(=O)O1` [PCM-0095086], for which the inhibition at 10 µM (read-out: BTK inhibition (%)) was determined as 1.6%.

On to `C[C@@]1(c2cc(-c3cncnc3)c(F)cc2F)CCSC(N)=N1` [PCM-0095088], for which, under setting [1], the inhibition at 10 µM is -25.7%.

For `CCS(=O)(=O)Nc1ccc2[nH]c(O)c(C(=Nc3ccc(CN4CCCCC4)cc3)c3ccccc3)c2c1` [PCM-0095089], under setting [1], the inhibition at 10 µM was found to be 82.1%.

Consider `CN(C)Cc1cccc(N=C(c2ccccc2)c2c(O)[nH]c3cc(C(N)=O)ccc23)c1` [PCM-0095090], for which, under setting [1], the inhibition at 10 µM stood at 5.5%.

Regarding `CN(C)Cc1cccc(N=C(c2ccccc2)c2c(O)[nH]c3cc(C(=O)N(C)C)ccc23)c1` [PCM-0095091], the inhibition at 10 µM under setting [1] was 1.4%.

On to `NC(=O)Nc1cc(-c2cccc(F)c2)sc1C(=O)N[C@H]1CCCNC1` [PCM-0095092], for which the inhibition at 10 µM under setting [1] stood at 86.9%.

With `COCCOc1ccc2c(c1)ncn2-c1ccc2cccc(N3CCC(N)CC3)c2n1` [PCM-0095094], under setting [1], the inhibition at 10 µM is -18.6%.

Turning to `Cc1ccc2c(=O)c3cccc(CC(=O)O)c3oc2c1C` [PCM-0095095], under setting [1], the inhibition at 10 µM is -7.8%.

`CN1c2ccccc2C(NCCCCCCC(=O)O)c2ccc(Cl)cc2S1(=O)=O` (stereo not drawn) [PCM-0095097]: the inhibition at 10 µM (read-out: BTK inhibition (%)) was -13.2%.

On to `N#C[C@@H]1C[C@@H]2C[C@@H]2N1C(=O)[C@@H](N)C12CC3CC(CC(O)(C3)C1)C2` [PCM-0095098], for which the inhibition at 10 µM under setting [1] is -22.6%.

Take `Cc1cn([C@@H]2C[C@@H](O)[C@H](CO)O2)c(=O)[nH]c1=O` [PCM-0095099]: the inhibition at 10 µM under setting [1] was -6.2%.

With `CN(C)CC/C=C1/c2ccccc2Sc2ccc(Cl)cc21` [PCM-0095101], under setting [1], the inhibition at 10 µM turned out to be 10.9%.

Turning to `O=C1[C@H](CC[C@H](O)c2ccc(F)cc2)[C@@H](c2ccc(O)cc2)N1c1ccc(F)cc1` [PCM-0095103], the inhibition at 10 µM under setting [1] is 31%.

For the molecule `NC(=O)C1CCCc2c1[nH]c1ccc(Cl)cc21` (stereo not drawn) [PCM-0095104], under setting [1], the inhibition at 10 µM was -3.4%.

On to `CN1CCCCC1Cn1cc(C(=O)c2cc([N+](=O)[O-])ccc2I)c2ccccc21` (stereo not drawn) [PCM-0095105], for which the inhibition at 10 µM (read-out: BTK inhibition (%)) stood at 22.6%.

Consider `Cc1cc(NC(=O)Nc2ccc(N(C)C)cc2)c2cc(F)cc(F)c2n1` [PCM-0095106], for which the inhibition at 10 µM under setting [1] stood at 6.2%.

Regarding `CCOc1ccc(Cc2cc([C@@H]3O[C@H](CO)[C@@H](O)[C@H](O)[C@H]3O)ccc2Cl)cc1` [PCM-0095107], the inhibition at 10 µM under setting [1] was -2.1%.
